From patent US20260207605A1, “KRAS G12D INHIBITORS AND USES THEREOF” (Abbisko Therapeutics Co., Ltd., priority 2022, published 2026) come the findings set out here.

The subject of one data set is AGS. Put plainly: Anti-proliferative 2D CTG assay, AGS. It is filed as cell-based. The conditions noted are these: Homo sapiens, AGS, 96 h, AGS cells, 4 days incubation, read-out: AGS cell IC50. On the procedure: (§1) 1.1 Day 0 Cell Culture and Plating
(§2) Cells in a logarithmic growth phase were harvested and the cells were counted by using a […]. Cell viability was tested by using a trypan blue exclusion method to ensure that cell viability was above 90%. The cell concentration was adjusted to the desired final density, and 90 μL of cell suspension was added to a 96-well plate, then the cells were incubated overnight at 37° C., 5% CO2 and 95% humidity.
(§3) 10 μL PBS was added to each well of the TO plate containing cells. The CTG reagent was thawed and the plate was equilibrated to room temperature for 30 minutes. The CTG solution of 50 µL/well was added to each well. The cells were lysed by shaking on an orbital shaker for 5 minutes. The plate was left at room temperature for 20 minutes to stabilize the luminescence signal. The TO fluorescence signal value was read.
(§4) From the 10 mM stock solution, with a ratio of 1:5, 9-point serial dilutions were performed. The 10× medium containing the compound was transferred into corresponding wells of the 96 wells. The final maximum compound concentration was […] and the final DMSO concentration was 0.1%. The 96-well plate was placed in a 37° C. incubator and incubated for 4 days.
(§5) 50 μL/well of detection reagent (CTG) was added to the cells, and the signal was read in an Envision machine.
(§6) The percent inhibition (%) at each compound concentration was calculated from the signal in the HPE and ZPE control wells and the fluorescence signal in the individual compound wells included in each assay plate. […] The compound concentration required for inhibitory concentration at 50% (IC50) was determined using a four-parameter logarithmic dose-response equation by testing the concentration of the compound and the inhibition percentage value. The endpoint value (IC50) of the reference compound was assessed in each experiment as a quality control measure. If the endpoint value is within three times the expected value, the experiment may be considered acceptable.

For the next data set, the target named is KRAS^G12D/cRAF (Homo sapiens, UniProt P01116, G12D). Put plainly: KRAS G12D/cRAF binding test (Alphalisa). Particulars: His-tagged KRAS G12D with GMPPNP, GST-tagged cRAF. As for the experimental part:
The compound was dissolved in 100% DMSO at a starting concentration of 5 mM and diluted in DMSO with a 3-fold serial dilution method for a total of 8 concentration points. 1 μL of the compound or DMSO at each concentration point was added into 99 μL of the experimental buffer to obtain 10× stock solution.
The ratio for each compound concentration was calculated from the signal of the DMSO control group contained in each assay plate and the Alphalisa signal in each compound well. The compound concentration required for inhibitory concentration at 50% (IC50) was determined using a four-parameter logarithmic dose-response equation by testing the concentration of the compound and the value of the ratio. The endpoint value (IC50) of the reference compound was assessed in each experiment as a quality control measure. If the endpoint value is within three times the expected value, the experiment may be considered acceptable.
(In general: Bead proximity is the source of the signal in Alpha formats.)

The test system of another data set is AsPC-1. As to the kind of experiment: Anti-proliferative 2D CTG assay, AsPC-1. It is filed as cell-based. The conditions noted are these: Homo sapiens, ASPC1, 96 h, AsPC-1 cells, 4 days incubation, read-out: AsPC-1 cell IC50. As for the experimental part: as §1, §2, §3, §4, §5, §6
Data set [1] can be described thus: Pharmacokinetic experiment in mice (single PO or IV administration). Particulars: male, ICR, mouse, plasma.
Description: The purpose of this trial is to study the pharmacokinetic behavior of some compounds of the present invention, and the administration method is: single oral administration (PO) or intravenous administration (IV) to ICR mice.
ICR mice male N=9 original source: Shanghai Sippr-Bk Lab Animal Co., Ltd.
The compounds were weighed and dissolved in the corresponding solution (0.5% CMC+1% tween water solution or 10% PG+10% Solutol®+80% pH3 citrate buffer). The mixture was then shaken well and sonicated to prepare a 1 mg/mL stock solution. Nine mice were orally administered at a dose of 10 mg/kg or intravenously administered at a dose of 2 mg/kg after an overnight fast.
About 90 μL of blood was collected via the submandibular vein per time point, heparin sodium anticoagulant was added, the sample was placed on ice after collection, and plasma was centrifuged within 1 hour (centrifugation conditions: 8,000 rpm, 6 minutes, 2-8° C.). The blood collection timepoints were 0, 0.25, 0.5, 1, 2, 4, 6, 8 and 24 h. The samples were stored in a −20° C. refrigerator.
The plasma sample was 40 μL, 160 μL of ice-cold acetonitrile containing internal standard was added, vortexed for 3 minutes, and centrifuged at 11,000 rpm for 5 minutes. 100 μL of the supernatant was taken and added to 100 μL of water, 5 μL of the sample was taken and injected into LC/MS/MS for analysis.

Structures are written as SMILES.

KRAS^G12D/cRAF, sequence (P01116 1-188 isoform P01116-2 G12D): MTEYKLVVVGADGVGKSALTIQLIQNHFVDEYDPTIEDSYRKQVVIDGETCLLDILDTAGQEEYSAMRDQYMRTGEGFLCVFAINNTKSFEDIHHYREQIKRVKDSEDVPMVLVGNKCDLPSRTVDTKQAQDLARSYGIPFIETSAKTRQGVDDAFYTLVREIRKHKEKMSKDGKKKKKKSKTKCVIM

As a reminder, the IC50 is the concentration needed to halve the response being measured. As to `[2H]C([2H])([2H])OCC12CCC(CN(c3nc(OCC45CC(=C)CN4CC(=C)C5)nc4c(F)c(-c5cc(O)cc6ccc(F)c(C#C)c56)nc(OC)c34)C1)N2` (single isomer, unassigned) [Example 173], the IC50 in the data set on AGS was 0.0264 µM.
Take `[2H]C([2H])([2H])OCC12CCC(CN(c3nc(OCC45CC(=C)CN4CC(=C)C5)nc4c(F)c(-c5cc(O)cc6ccc(F)c(C#C)c56)ncc34)C1)N2` (stereo not drawn) [Example 1, 4-(2-((2,6-dimethylenetetrahydro-1H-pyrrolizin-7a(5H)-yl)methoxy)-8-fluoro-4-(1-((methoxy-d3)methyl)-3,8-diazabicyclo[3.2.1]octan-3-yl)pyrido[4,3-d]pyrimidin-7-yl)-5-ethynyl-6-fluoronaphthalen-2-ol]: the IC50 was determined as 0.0374 µM on KRAS^G12D/cRAF and 0.0229 µM in the data set with AGS.
In the case of `C#Cc1c(F)ccc2cc(O)cc(-c3ncc4c(N5CC6CCC(C(C)(C)O)(C5)N6)nc(OCC56CC(=C)CN5CC(=C)C6)nc4c3F)c12` (stereo not drawn) [Example 2, 4-(2-((2,6-dimethylenetetrahydro-1H-pyrrolizin-7a(5H)-yl)methoxy)-8-fluoro-4-(1-(2-hydroxypropan-2-yl)-3,8-diazabicyclo[3.2.1]octan-3-yl)pyrido[4,3-d]pyrimidin-7-yl)-5-ethynyl-6-fluoronaphthalen-2-ol], the IC50 came to 0.0482 µM on KRAS^G12D/cRAF and 0.251 µM in the data set with AGS.
`C#Cc1c(F)ccc2cc(O)cc(-c3ncc4c(N5C[C@@H]6CC[C@](CC)(C5)N6)nc(OCC56CC(=C)CN5CC(=C)C6)nc4c3F)c12` [Example 5, 4-(2-((2,6-dimethylenetetrahydro-1H-pyrrolizin-7a(5H)-yl)methoxy)-4-((1R,5S)-1-ethyl-3,8-diazabicyclo[3.2.1]octan-3-yl)-8-fluoropyrido[4,3-d]pyrimidin-7-yl)-5-ethynyl-6-fluoronaphthalen-2-ol]: the IC50 on KRAS^G12D/cRAF came out at 0.0165 µM; in the data set on AsPC-1 it was 0.0458 µM; with AGS, 0.0141 µM.
Taken in the same sequence, the figures for `[2H]C([2H])([2H])C12CCC(CN(c3nc(OCC45CC(=C)CN4CC(=C)C5)nc4c(F)c(-c5cc(O)cc6ccc(F)c(C#C)c56)ncc34)C1)N2` (stereo not drawn) [Example 6, 4-(2-((2,6-dimethylenetetrahydro-1H-pyrrolizin-7a(5H)-yl)methoxy)-8-fluoro-4-(1-(methyl-d3)-3,8-diazabicyclo[3.2.1]octan-3-yl)pyrido[4,3-d]pyrimidin-7-yl)-5-ethynyl-6-fluoronaphtha len-2-ol] were 0.0032 µM, 0.0489 µM and 0.0143 µM.
As for `C#Cc1c(F)ccc2cc(O)cc(-c3ncc4c(N5CC6CCC(COC)(C5)N6)nc(OCC56CC(=C)CN5CC(=C)C6)nc4c3F)c12` (stereo not drawn) [Example 8, 4-(2-((2,6-dimethylenetetrahydro-1H-pyrrolizin-7a(5H)-yl)methoxy)-8-fluoro-4-(1-(methoxymethyl)-3,8-diazabicyclo[3.2.1]octan-3-yl)pyrido[4,3-d]pyrimidin-7-yl)-5-ethynyl-6-fluoronaphthalen-2-ol], in the data set with AGS, the IC50 came out at 0.0368 µM.
Take `[2H]C([2H])([2H])[C@@]12CC[C@@H](CN(c3nc(OC[C@@]45CCCN4C/C(=C\F)C5)nc4c(F)c(-c5cc(O)cc6ccc(F)c(C#C)c56)ncc34)C1)N2` [Example 53, 5-ethynyl-6-fluoro-4-(8-fluoro-2-(((S,Z)-2-(fluoromethylene)tetrahydro-1H-pyrrolizin-7a(5H)-yl)methoxy)-4-((1R,5S)-1-(methyl-d3)-3,8-diazabicyclo [3.2.1]octan-3-yl)pyrido[4,3-d]pyrimidin-7-yl)naphthalen-2-ol]: the IC50 at KRAS^G12D/cRAF stood at 0.0166 µM; in the data set on AGS, 0.001 µM.
Turning to `C#Cc1c(F)ccc2cc(O)cc(-c3ncc4c(N5C[C@@H]6CC[C@](COC)(C5)N6)nc(OC[C@@]56CCCN5C/C(=C/F)C6)nc4c3F)c12` [Example 82, 5-ethynyl-6-fluoro-4-(8-fluoro-2-(((S,E)-2-(fluoromethylene)tetrahydro-1H-pyrrolizin-7a (5H)-yl)methoxy)-4-((1R,5S)-1-(methoxymethyl)-3,8-diazabicyclo [3.2.1]octan-3-yl)pyrido[4,3-d]pyrimidin-7-yl)naphthalen-2-ol], the IC50 at KRAS^G12D/cRAF is 0.0081 µM.
In the case of `[2H]C([2H])([2H])Oc1nc(-c2cc(O)cc3ccc(F)c(C#C)c23)c(F)c2nc(OCC34CC(=C)CN3CC(=C)C4)nc(N3CC4CCC(CC)(C3)N4)c12` (stereo not drawn) [Example 201, 4-(2-((2,6-dimethylenetetrahydro-1H-pyrrolizin-7a(5H)-yl)methoxy)-4-(1-ethyl-3,8-diazabicyclo[3.2.1]octan-3-yl)-8-fluoro-5-(methoxy-d3)pyrido[4,3-d]pyrimidin-7-yl)-5-ethynyl-6-fluoronaphthalen-2-ol], in the data set with AGS, the IC50 is 0.0216 µM.
As to `[2H]C([2H])([2H])Oc1nc(-c2cc(O)cc3ccc(F)c(C#C)c23)c(F)c2nc(OC[C@@]34CCCN3C/C(=C\F)C4)nc(N3CC4CCC(CC)(C3)N4)c12` (stereo partly drawn) [Example 204, 4-(4-(1-ethyl-3,8-diazabicyclo [3.2.1]octan-3-yl)-8-fluoro-2-(((S,Z)-2-(fluoromethylene)tetrahydro-1H-pyrrolizin-7a(5H)-yl)methoxy)-5-(methoxy-d3)pyrido [4,3-d]pyrimidin-7-yl)-5-ethynyl-6-fluoronaphthalen-2-ol], the figures for the IC50 on KRAS^G12D/cRAF and with AGS were 0.0039 µM and 0.0051 µM, respectively.
`[2H]C([2H])([2H])C([2H])([2H])[C@@]12CC[C@@H](CN(c3nc(OC[C@@]45CCCN4C/C(=C\F)C5)nc4c(F)c(-c5ccc(F)c6sc(N)c(C#N)c56)c(Cl)cc34)C1)N2` [Example 360, 2-amino-4-(6-chloro-4-((1R,5S)-1-(ethyl-d5)-3,8-diazabicyclo [3.2.1]octan-3-yl)-8-fluoro-2-(((S,Z)-2-(fluoromethylene)tetra-hydro-1H-pyrrolizin-7a(5H)-yl)methoxy)quinazolin-7-yl)-7-fluoro-benzo[b]thiophene-3-carbonitrile]: the IC50 on KRAS^G12D/cRAF was 0.0202 µM.
For orientation: AUC means the area under the concentration-time curve, a measure of exposure. What is called Cmax is the maximum level reached in the sampled fluid or tissue. For orientation: half-life means the time in which the quantity being followed falls by half. The low end stands for rapid decline, the high end for slow decline. As usually defined, the bioavailability is dose-corrected exposure relative to a reference, in per cent. As for `C#Cc1c(F)ccc2cc(O)cc(-c3ncc4c(N5C[C@H]6CC[C@@H](C5)N6)nc(OC[C@@]56CCCN5C/C(=C\F)C6)nc4c3F)c12` [Reference Compound 1, 4-(4-((1R,5S)-3,8-diazabicyclo [3.2.1]octan-3-yl)-8-fluoro-2-(((S,Z)-2-(fluoromethylene)tetrahydro-1H-pyrrolizin-7a(5H)-yl)methoxy)pyrido[4,3-d]pyrimidin-7-yl)-5-ethynyl-6-fluoronaphthalen-2-ol, reference compound], in data set [1] (iv, 2 mg/kg), the AUC is 688 ng·h/mL, the Cmax is 1690 ng/mL and the half-life was 10.5 h. In data set [1] (po, 10 mg/kg), this compound had an AUC of 82.6 ng·h/mL, a Cmax of 33.2 ng/mL, a bioavailability of 2.4% and a half-life of 2.6 h.
In data set [1] (iv, 2 mg/kg), `C#Cc1c(F)ccc2cc(O)cc(-c3ncc4c(N5C[C@H]6CC[C@@H](C5)N6)nc(OC[C@@]56CCCN5C/C(=C/F)C6)nc4c3F)c12` [Reference Compound 2, 4-(4-((1R,5S)-3,8-diazabicyclo [3.2.1]octan-3-yl)-8-fluoro-2-(((S,E)-2-(fluoromethylene)tetrahydro-1H-pyrrolizin-7a(5H)-yl)methoxy)pyrido[4,3-d]pyrimidin-7-yl)-5-ethynyl-6-fluoronaphthalen-2-ol, reference compound] had an AUC of 718 ng·h/mL, a Cmax of 1350 ng/mL and a half-life of 14.1 h. In data set [1] (po, 10 mg/kg), this compound had an AUC of 43.2 ng·h/mL, a Cmax of 27.7 ng/mL, a bioavailability of 1.2% and a half-life of 2.3 h.
In data set [1] (po, 10 mg/kg), `C#Cc1c(F)ccc2cc(O)cc(-c3ncc4c(N5C[C@H]6CC[C@@H](C5)N6)nc(OC[C@@]56CCCN5CC(=C)C6)nc4c3F)c12` [Reference Compound 3, 4-(4-((1R,5S)-3,8-diazabicyclo [3.2.1]octan-3-yl)-8-fluoro-2-(((S)-2-methylenetetrahydro-1H-pyrrolizin-7a(5H)-yl)methoxy)pyrido[4,3-d]pyrimidin-7-yl)-5-ethynyl-6-fluoronaphthalen-2-ol, reference compound] had an AUC of 27.1 ng·h/mL, a Cmax of 10.7 ng/mL and a half-life of 2.6 h.
